From patent publication US12312359B2 (Vitae Pharmaceuticals, LLC, priority 2016, dated 2025)

biological target: T1, biotinylated wild-type menin and MLL-AF9 fusion protein (menin/MLL binding) (Homo sapiens, UniProt O00255); assay: Assay 1: menin/MLL binding AlphaLISA assay, wild-type menin; settings: Table 30; column head does not say wild-type or mutated menin
T1 construct: made in house; host or cells: menin: E. coli; MLL-AF9-FLAG: HEK293 cells, used as cleared lysate
T1 sequence (O00255 1-610): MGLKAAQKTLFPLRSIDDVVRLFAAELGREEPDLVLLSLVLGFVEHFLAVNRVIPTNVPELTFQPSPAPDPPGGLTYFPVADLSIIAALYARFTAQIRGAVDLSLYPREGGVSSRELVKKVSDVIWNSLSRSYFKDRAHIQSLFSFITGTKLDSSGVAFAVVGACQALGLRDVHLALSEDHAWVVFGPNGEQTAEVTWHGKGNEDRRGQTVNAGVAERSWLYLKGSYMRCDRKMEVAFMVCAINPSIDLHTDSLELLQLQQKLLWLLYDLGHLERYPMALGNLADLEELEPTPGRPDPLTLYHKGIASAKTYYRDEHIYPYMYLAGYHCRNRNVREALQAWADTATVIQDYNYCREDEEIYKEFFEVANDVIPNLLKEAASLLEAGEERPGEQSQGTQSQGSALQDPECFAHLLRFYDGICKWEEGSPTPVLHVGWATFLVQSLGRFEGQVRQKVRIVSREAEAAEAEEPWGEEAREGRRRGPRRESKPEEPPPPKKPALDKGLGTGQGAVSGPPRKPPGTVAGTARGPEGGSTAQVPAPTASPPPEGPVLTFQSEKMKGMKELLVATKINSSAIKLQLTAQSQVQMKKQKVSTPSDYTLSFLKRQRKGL
Method: Potencies of inhibitor compounds against menin/MLL binding were assessed by AlphaLISA assay using biotinylated (1) wild-type menin or (2) mutated menin (described in Huang et al, 2012, Nature, 482, 542-546) and MLL-AF9 fusion protein bearing a FLAG epitope at its C-terminus. Menin proteins were expressed in E. coli and covalently modified with biotin using EZ-Link™ Sulfo-NHS-Biotin (ThermoFisher Cat.No. 21217) according to manufacturer's protocol. MLL1-1,396 fused to AF91-92 and the C-terminal FLAG peptide was expressed in HEK293 cells and used as a lysate cleared at 21,000×g for 10 min.
Compounds (2 μL of solutions in DMSO) were dispensed in white 96-well half-area plates (Corning Cat.No. 3693) and incubated for 30 min at RT with 5 nM biotinylated menin and appropriate amount of MLL-AF9-FLAG lysate in 40 μL of 50 mM Tris-HCl buffer pH 7.4 containing 5% (v/v) DMSO, 50 mM NaCl, 0.01% (w/v) bovine serum albumin (BSA) and 1 mM DTT. To this incubation mixture, 40 μL of AlphaLISA anti-FLAG acceptor (PerkinElmer Cat.No. AL112C) and streptavidin donor (PerkinElmer Cat.No. 6760002) beads (10 μg/mL each) was added and incubation continued at RT for 60 min. Alpha (amplified luminescent proximity homogeneous assay) signal was measured on an Envision multi-label plate reader at the end of the incubation. All steps were conducted under dim fluorescent light.
These percent inhibition values were regressed against compound concentrations in the assay using four parameter logit non-linear curve fitting (XLFit, IDBS). The IC50 values were derived from the curve fitting as inflection points on the dose-response curves and are set out in Table 30 below.

Compound | IC50
CC(C)n1nccc1-c1cc(F)ccc1Oc1cnc(Cl)nc1N1CCC2(CCN(Cc3ccc4[nH]c(=O)[nH]c4c3)C2)C1 (stereo not shown) [Example 46, 5-((7-(2-chloro-5-(4-fluoro-2-(1-isopropyl-1H-pyrazol-5-yl)phenoxy)pyrimidin-4-yl)-2,7-diazaspiro[4.4]nonan-2-yl)methyl)-1,3-dihydro-2H-benzo[d]imidazol-2-one] | 100 to 1000 nM
CC(C)c1ncncc1-c1cc(F)ccc1Nc1cncnc1N1CC2(CN(CC3CCOCC3)C2)C1 [Example 244, N-(4-fluoro-2-(4-isopropylpyrimidin-5-yl)phenyl)-4-(6-((tetrahydro-2H-pyran-4-yl)methyl)-2,6-diazaspiro[3.3]heptan-2-yl) pyrimidin-5-amine] | < 100 nM
CC(C)S(=O)(=O)Nc1cc(F)ccc1Oc1cncnc1N1CC2(CCN(C[C@H]3CC[C@H](NS(C)(=O)=O)CC3)CC2)C1 [Example 74, N-(5-fluoro-2-((4-(7-(((1r,4r)-4-(methylsulfonamido)cyclohexyl)methyl)-2,7-diazaspiro[3.5]nonan-2-yl)pyrimidin-5-yl)oxy)phenyl)propane-2-sulfonamide] | < 100 nM
CC(C)c1ncncc1-c1cc(F)ccc1Oc1cncnc1N1CCC2(CC(NCc3ccc(F)cc3)CO2)C1 (stereo not shown) [Example 20, 7-(5-(4-fluoro-2-(4-isopropylpyrimidin-5-yl)phenoxy)pyrimidin-4-yl)-N-(4-fluorobenzyl)-1-oxa-7-azaspiro[4.4]nonan-3-amine] | 100 to 1000 nM
CC(C)c1ncncc1-c1cc(F)ccc1Oc1cncnc1N1CCC2(CCC(Cc3ccccc3)C2)C1 (stereo not shown) [Example 59, 7-benzyl-2-(5-(4-fluoro-2-(4-isopropylpyrimidin-5-yl)phenoxy)pyrimidin-4-yl)-2-azaspiro[4.4]nonane] | ≥ 1000 nM
CC(C)n1nccc1-c1cc(F)ccc1Oc1cncnc1N1CCC2(CCN(C(=O)C(N)C3CCCCC3)C2)C1 (single isomer, unassigned) [Example 206B, 2-amino-2-cyclohexyl-1-(7-(5-(4-fluoro-2-(1-isopropyl-1H-pyrazol-5-yl)phenoxy)pyrimidin-4-yl)-2,7-diazaspiro[4.4]nonan-2-yl)ethanone] | 100 to 1000 nM
CCc1ccccc1-c1cc(F)ccc1Cc1cnccc1N1CC2(CN(CC3CCOCC3)C2)C1 [Example 78, 2-(3-((2′-ethyl-5-fluoro-[1,1′-biphenyl]-2-yl)methyl)pyridin-4-yl)-6-((tetrahydro-2H-pyran-4-yl)methyl)-2,6-diazaspiro[3.3]heptane] | 100 to 1000 nM
CC(C)c1ccccc1-c1cc(F)ccc1Nc1cncnc1N1CCC2(CCN(Cc3ccc4[nH]c(=O)[nH]c4c3)C2)C1 (stereo not shown) [Example 243, 5-((7-(5-((5-fluoro-2′-isopropyl-[1,1′-biphenyl]-2-yl)amino)pyrimidin-4-yl)-2,7-diazaspiro [4.4]nonan-2-yl)methyl)-1,3-dihydro-2H-benzo[d]imidazol-2-one] | < 100 nM
Cc1noc(C(C)C)c1-c1cc(F)ccc1Nc1cncnc1N1CC2(CN(CC3CCOCC3)C2)C1 [Example 14A, N-(4-fluoro-2-(5-isopropyl-3-methylisoxazol-4-yl)phenyl)-4-(6-((tetrahydro-2H-pyran-4-yl)methyl)-2,6-diazaspiro[3.3]heptan-2-yl)pyrimidin-5-amine] | < 100 nM
CC(C)N(C(=O)c1cc(F)ccc1Oc1cncnc1N1CCC2(CCC(N)(Cc3ccc(C#N)cc3)C2)C1)C(C)C (single isomer, unassigned) [Example 22B, 2-((4-(7-amino-7-(4-cyanobenzyl)-2-azaspiro[4.4]nonan-2-yl)pyrimidin-5-yl)oxy)-5-fluoro-N,N-diisopropylbenzamide] | < 100 nM
CC(C)CN1CC2(CCN(c3ncncc3Nc3ccc(F)cc3-c3ccccc3OC(C)C)CC2)C1 [Example 245, N-(5-fluoro-2′-isopropoxy-[1,1′-biphenyl]-2-yl)-4-(2-isobutyl-2,7-diazaspiro[3.5]nonan-7-yl) pyrimidin-5-amine] | < 100 nM
CC(C)NS(=O)(=O)c1cc(F)ccc1Oc1cncnc1N1CC2(CN(CC3CCOCC3)C2)C1 [Example 32, 5-fluoro-N-isopropyl-2-((4-(6-((tetrahydro-2H-pyran-4-yl)methyl)-2,6-diazaspiro[3.3]heptan-2-yl)pyrimidin-5-yl)oxy)benzenesulfonamide] | < 100 nM
CC1(C)C(=O)Nc2cc(CN3CCC4(C3)CN(c3ncncc3Oc3ccc(F)cc3Cl)C4)ccc21 [Example 39, 6-((2-(5-(2-chloro-4-fluorophenoxy)pyrimidin-4-yl)-2,6-diazaspiro[3.4]octan-6-yl)methyl)-3,3-dimethylindolin-2-one] | 100 to 1000 nM
N#Cc1ccc(-c2cc(F)ccc2Oc2cncnc2N2CCC3(CCN(c4nc(C(=O)O)cs4)C3)C2)c(C2CC2)c1 (stereo not shown) [Example 56, 2-(7-(5-((4′-cyano-2′-cyclopropyl-5-fluoro-[1,1′-biphenyl]-2-yl)oxy)pyrimidin-4-yl)-2,7-diazaspiro[4.4]nonan-2-yl)thiazole-4-carboxylicacid] | ≥ 1000 nM
CC(C)N(C)C(=O)c1cc(F)ccc1Oc1cncnc1N1CCC2(CCN(Cc3cccc(N4CCOC4=O)c3)C2)C1 (stereo not shown) [Example 61, 5-fluoro-N-isopropyl-N-methyl-2-((4-(7-(3-(2-oxooxazolidin-3-yl)benzyl)-2,7-diazaspiro[4.4]nonan-2-yl)pyrimidin-5-yl)oxy)benzamide] | 100 to 1000 nM
CCc1ccccc1-c1cc(F)ccc1Nc1cncnc1N1CCC2(CC1)CN(CC(C)(C)O)C2 [Example 71, 1-(7-(5-((2′-ethyl-5-fluoro-[1,1′-biphenyl]-2-yl)amino)pyrimidin-4-yl)-2,7-diazaspiro[3.5]nonan-2-yl)-2-methylpropan-2-ol] | < 100 nM
CNC(=O)[C@H]1CC[C@H](CN2CCC3(CC2)CN(c2ncncc2Oc2ccc(F)cc2C(=O)N(C)C(C)C)C3)CC1 [Example 21, 5-fluoro-N-isopropyl-N-methyl-2-((4-(7-(((1r,4r)-4-(methylcarbamoyl)cyclohexyl)methyl)-2,7-diazaspiro[3.5]nonan-2-yl)pyrimidin-5-yl)oxy)benzamide] | 100 to 1000 nM
CNC(=O)c1csc(N2CCC3(CCN(c4ncncc4Oc4ccc(F)cc4-c4ccc(C#N)cc4C4CC4)C3)C2)n1 (stereo not shown) [Example 57, 2-(7-(5-((4′-cyano-2′-cyclopropyl-5-fluoro-[1,1′-biphenyl]-2-yl)oxy)pyrimidin-4-yl)-2,7-diazaspiro[4.4]nonan-2-yl)-N-methylthiazole-4-carboxamide] | < 100 nM
CC(C)n1nccc1-c1cc(F)ccc1Oc1cncnc1N1CCC2(CCN(C(=O)C(N)C3CCCCC3)C2)C1 (single isomer, unassigned) [Example 206C, 2-amino-2-cyclohexyl-1-(7-(5-(4-fluoro-2-(1-isopropyl-1H-pyrazol-5-yl)phenoxy)pyrimidin-4-yl)-2,7-diazaspiro[4.4]nonan-2-yl)ethanone] | 100 to 1000 nM
CC(C)c1ccccc1-c1cc(F)ccc1Nc1cnccc1N1CC2(CN(CC3CCOCC3)C2)C1 [Example 30, N-(5-fluoro-2′-isopropyl-[1,1′-biphenyl]-2-yl)-4-(6-((tetrahydro-2H-pyran-4-yl)methyl)-2,6-diazaspiro[3.3]heptan-2-yl)pyridin-3-amine] | < 100 nM
CN(C)C(=O)c1csc(N2CCC3(CCN(c4ncncc4Oc4ccc(F)cc4-c4ccc(C#N)cc4C4CC4)C3)C2)n1 (stereo not shown) [Example 58, 2-(7-(5-((4′-cyano-2′-cyclopropyl-5-fluoro-[1,1′-biphenyl]-2-yl)oxy)pyrimidin-4-yl)-2,7-diazaspiro[4.4]nonan-2-yl)-N,N-dimethylthiazole-4-carboxamide] | 100 to 1000 nM
CCOC(=O)c1csc(N2CCC3(CCN(c4ncncc4Oc4ccc(F)cc4-c4ccc(C#N)cc4C4CC4)C3)C2)n1 (stereo not shown) [Example 55, Ethyl 2-(7-(5-((4′-cyano-2′-cyclopropyl-5-fluoro-[1,1′-biphenyl]-2-yl)oxy)pyrimidin-4-yl)-2,7-diazaspiro[4.4]nonan-2-yl)thiazole-4-carboxylate] | ≥ 1000 nM
